The source of these data is the supplement of paper PMC12698765.

Counter-ions that a name gives are not always drawn. ± gives the standard deviation of the averaged measurements.

Assay [1] relates to 409B2 hiPSC (iCRISPR Cas9, FRMD7 editing). Kind of assay: NHEJ-attributed indel frequency relative to solvent control (fold (ratio to mock)); higher = more NHEJ outcomes. The method, then: (§1)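 Subset screen of 55 drugs tested at 5 concentrations around the effective screening dose, in 409B2 iCRISPR Cas9 hiPSCs editing FRMD7 with a ssDNA donor. Drugs were applied for 24 h. Viability was read by resazurin and editing outcomes by amplicon sequencing (HDR, NHEJ <2 bp microhomology, MMEJ ≥2 bp microhomology). Values are relative to solvent mock controls; two biological replicates.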

The test system is the same in assay [2]. Description: cell survival relative to solvent control (fold (ratio to mock)); higher = more surviving cells. Here is the method: as §1
Assay [3] has the same test system. Description: MMEJ-attributed deletion frequency relative to solvent control (fold (ratio to mock)); higher = more MMEJ outcomes. Here is the method:
as §1

Assay [4] shares this test system. Kind of assay: HDR (precise edit) frequency relative to solvent control (fold (ratio to mock)); higher = more homology-directed repair outcomes. Here is the method:
as §1

As for `Cc1ccc(NC(=O)c2ccc(CN3CC[C@H](N(C)C)C3)c(C(F)(F)F)c2)cc1Nc1nccc(-c2cncnc2)n1` [Bafetinib (INNO-406)] (in DMSO), the NHEJ-attributed indel frequency in assay [1] (2000 nM) amounted to 0.9931 ± 0.002; in assay [1] (5000 nM), 1.004 ± 0.0057; in assay [1] (10000 nM), 1.06 ± 0.025; in assay [1] (20000 nM) it was 1.03 ± 0.11; in assay [1] (50000 nM) it was 0.525. The cell survival in assay [2] (2000 nM) amounted to 1.07; in assay [2] (5000 nM), 1.36; in assay [2] (10000 nM), 0.818; in assay [2] (20000 nM), 0.096; in assay [2] (50000 nM), 0.0107. The MMEJ-attributed deletion frequency in assay [3] (2000 nM) was determined as 1.04 ± 0.012; in assay [3] (5000 nM), 0.89 ± 0.082; in assay [3] (10000 nM), 1.13 ± 0.045; in assay [3] (20000 nM), 1.32 ± 0.11; in assay [3] (50000 nM), 0.621. Further, the HDR in assay [4] (2000 nM) was found to be 1.04 ± 0.053; in assay [4] (5000 nM), 1.066 ± 0.0049; in assay [4] (10000 nM), 1.03 ± 0.1; in assay [4] (20000 nM), 0.775 ± 0.27; in assay [4] (50000 nM), 0.282.
Take `O=C(O[C@H]1CN2CCC1CC2)N1CCc2ccccc2[C@@H]1c1ccccc1` [Solifenacin succinate] (in DMSO): the NHEJ-attributed indel frequency was found to be 0.9657 ± 0.0021 in assay [1] (200 nM); 0.993 ± 0.015 in assay [1] (500 nM); 0.999 ± 0.026 in assay [1] (1000 nM); 1.01 ± 0.017 in assay [1] (2000 nM); 0.989 ± 0.032 in assay [1] (5000 nM). In addition, the cell survival turned out to be 1.04 in assay [2] (200 nM); 1.16 in assay [2] (500 nM); 0.907 in assay [2] (1000 nM); 1.06 in assay [2] (2000 nM); 1.1 in assay [2] (5000 nM). Besides, the MMEJ-attributed deletion frequency in assay [3] (200 nM) was 0.989 ± 0.091; in assay [3] (500 nM), 0.991 ± 0.017; in assay [3] (1000 nM), 0.924 ± 0.054; in assay [3] (2000 nM) it was 0.937 ± 0.033; in assay [3] (5000 nM) it was 1.01 ± 0.12. Moreover, the HDR in assay [4] (200 nM) was determined as 1.14 ± 0.017; in assay [4] (500 nM), 1.06 ± 0.051; in assay [4] (1000 nM), 1.04 ± 0.12; in assay [4] (2000 nM), 1.02 ± 0.015; in assay [4] (5000 nM) it was 1.09 ± 0.039.
With `NS(=O)(=O)c1ccccc1` [Benzenesulfonamide] (in DMSO), the NHEJ-attributed indel frequency was found to be 0.951 ± 0.029 in assay [1] (20 nM); 0.974 ± 0.026 in assay [1] (50 nM); 0.969 ± 0.028 in assay [1] (100 nM); 0.995 ± 0.03 in assay [1] (200 nM); 0.989 ± 0.029 in assay [1] (500 nM). Further, the cell survival in assay [2] (20 nM) was determined as 0.86; in assay [2] (50 nM), 1.22; in assay [2] (100 nM) it was 1.05; in assay [2] (200 nM) it was 1.13; in assay [2] (500 nM), 1.17. The MMEJ-attributed deletion frequency was 0.855 ± 0.14 in assay [3] (20 nM); 0.92339 ± 0.00028 in assay [3] (50 nM); 1.05 ± 0.23 in assay [3] (100 nM); 0.912 ± 0.08 in assay [3] (200 nM); 0.962 ± 0.038 in assay [3] (500 nM). Moreover, the HDR was determined as 1.14 ± 0.063 in assay [4] (20 nM); 1.08 ± 0.053 in assay [4] (50 nM); 1.02 ± 0.038 in assay [4] (100 nM); 1.1 ± 0.048 in assay [4] (200 nM); 1.06 ± 0.046 in assay [4] (500 nM).
Regarding `CC(=O)c1c(C)c2cnc(Nc3ccc(N4CCNCC4)cn3)nc2n(C2CCCC2)c1=O` (in DMSO), the NHEJ-attributed indel frequency in assay [1] (2000 nM) was 0.989 ± 0.048; in assay [1] (5000 nM), 0.993 ± 0.073; in assay [1] (10000 nM) it was 0.46 ± 0.24; in assay [1] (20000 nM), 0.127 ± 0.018; in assay [1] (50000 nM), 0.12 ± 0.036. Besides, the cell survival in assay [2] (2000 nM) was 0.475; in assay [2] (5000 nM), 0.185; in assay [2] (10000 nM), 0.0327; in assay [2] (20000 nM) it was -0.0205; in assay [2] (50000 nM), 0.00851. Also, the MMEJ-attributed deletion frequency in assay [3] (2000 nM) is 0.907 ± 0.03; in assay [3] (5000 nM), 1.19 ± 0.17; in assay [3] (10000 nM), 0.73 ± 0.046; in assay [3] (20000 nM), 0.458 ± 0.082; in assay [3] (50000 nM), 0.244 ± 0.076. In addition, the HDR came to 1.01 ± 0.011 in assay [4] (2000 nM); 0.587 ± 0.11 in assay [4] (5000 nM); 0.152 ± 0.029 in assay [4] (10000 nM); 0.0501 ± 0.0028 in assay [4] (20000 nM); 0.0996 ± 0.032 in assay [4] (50000 nM).
On to `CCCCc1oc2ccc(NS(C)(=O)=O)cc2c1C(=O)c1ccc(OCCCN(CCCC)CCCC)cc1` [Dronedarone HCl] (in DMSO), for which the NHEJ-attributed indel frequency in assay [1] (200 nM) is 0.991 ± 0.011; in assay [1] (500 nM), 1.04 ± 0.043; in assay [1] (1000 nM) it was 1.01 ± 0.013; in assay [1] (2000 nM) it was 0.958 ± 0.093; in assay [1] (5000 nM), 1.06 ± 0.092. Besides, the cell survival in assay [2] (200 nM) was found to be 1.15; in assay [2] (500 nM) it was 1.01; in assay [2] (1000 nM), 0.696; in assay [2] (2000 nM) it was 0.521; in assay [2] (5000 nM), 0.261. Moreover, the MMEJ-attributed deletion frequency in assay [3] (200 nM) stood at 0.537 ± 0.76; in assay [3] (500 nM) it was 0.463 ± 0.65; in assay [3] (1000 nM) it was 0.895 ± 0.18; in assay [3] (2000 nM) it was 0.923 ± 0.16; in assay [3] (5000 nM), 1.18 ± 0.34. The HDR in assay [4] (200 nM) was found to be 0.891 ± 0.2; in assay [4] (500 nM) it was 0.835 ± 0.2; in assay [4] (1000 nM), 0.734 ± 0.051; in assay [4] (2000 nM), 0.513 ± 0.071; in assay [4] (5000 nM) it was 0.556 ± 0.012.
